Like-named read-outs stand apart in the source and are kept apart here.

In general, GI50 refers to the concentration that inhibits growth by half.

Format in all cases: cell-based, human
One assay has as its system OVCAR-8. The assay can be described thus: NCI-60 cell line screen (SRB), OVCAR-8. The conditions noted are these: Homo sapiens. On the procedure: (§1) Drug sensitivity data are provided as GI50s (concentrations required to inhibit growth by 50%). The first row of the text file identifies cell lines, separated by tabs. Subsequent rows contain compound number, compound name, and GI50 for each cell line, each separated by a tab. […] For a typical screening experiment, cells are inoculated into 96 well microtiter plates in 100 μL at plating densities ranging from 5,000 to 40,000 cells/well depending on the doubling time of individual cell lines. After cell inoculation, the microtiter plates are incubated at 37° C., 5% CO2, 95% air and 100% relative humidity for 24 h prior to addition of experimental drugs. After 24 h, two plates of each cell line are fixed in situ with TCA, to represent a measurement of the cell population for each cell line at the time of drug addition (Tz). Experimental drugs are solubilized in dimethyl sulfoxide at 400-fold the desired final maximum test concentration and stored frozen prior to use. At the time of drug addition, an aliquot of frozen concentrate is thawed and diluted to twice the desired final maximum test concentration with complete medium containing 50 μg/ml gentamicin. Additional four, 10-fold or one-half log serial dilutions are made to provide a total of five drug concentrations plus control. Aliquots of 100 μl of these different drug dilutions are added to the appropriate microtiter wells already containing 100 μl of medium, resulting in the required final drug concentrations. Following drug addition, the plates are incubated for an additional 48 h at 37° C., 5% CO2, 95% air, and 100% relative humidity. For adherent cells, the assay is terminated by the addition of cold TCA. Cells are fixed in situ by the gentle addition of 50 μl of cold 50% (w/v) TCA (final concentration, 10% TCA) and incubated for 60 minutes at 4° C. The supernatant is discarded, and the plates are washed five times with tap water and air dried. Sulforhodamine B (SRB) solution (100 μl) at 0.4% (w/v) in 1% acetic acid is added to each well, and plates are incubated for 10 minutes at room temperature. After staining, unbound dye is removed by washing five times with 1% acetic acid and the plates are air dried. Bound stain is subsequently solubilized with 10 mM trizma base, and the absorbance is read on an automated plate reader at a wavelength of 515 nm. For suspension cells, the methodology is the same except that the assay is terminated by fixing settled cells at the bottom of the wells by gently adding 50 μl of 80% TCA (final concentration, 16% TCA). Using the seven absorbance measurements [time zero, (Tz), control growth, (C), and test growth in the presence of drug at the five concentration levels (Ti)], the percentage growth is calculated at each of the drug concentrations levels. […]

A further assay relates to UACC-257. The assay can be described thus: NCI-60 cell line screen (SRB), UACC-257. The conditions noted are these: Homo sapiens. On the procedure: as §1
Another assay deals with CNS Cancer cell lines. The assay can be described thus: NCI-60 cell line screen, CNS Cancer panel average. To be noted: Homo sapiens, read-out: GI50 Average. On the procedure:
as §1

For another assay, the system named is M14. Description: NCI-60 cell line screen (SRB), M14. To be noted: Homo sapiens. On the procedure:
as §1

A further assay concerns HOP-62. The assay can be described thus: NCI-60 cell line screen (SRB), HOP-62. To be noted: Homo sapiens. On the procedure:
as §1

The next assay has as its system OVCAR-5. The assay can be described thus: NCI-60 cell line screen (SRB), OVCAR-5. The conditions noted are these: Homo sapiens. The procedure:
as §1

In a further assay the test system is A549/ATCC. The assay can be described thus: NCI-60 cell line screen (SRB), A549/ATCC. To be noted: Homo sapiens. On the procedure: as §1
Another assay relates to ACHN. Description: NCI-60 cell line screen (SRB), ACHN. To be noted: Homo sapiens. The procedure:
as §1

In assay [1] the test system is Prostate Cancer cell lines. Description: NCI-60 cell line screen, Prostate Cancer panel average. The conditions noted are these: Homo sapiens, read-out: GI50 Average. The procedure:
as §1

The subject of the next assay is HCT-15. The assay can be described thus: NCI-60 cell line screen (SRB), HCT-15. The conditions noted are these: Homo sapiens. The procedure: as §1
The next assay has as its system CAKI-1. Description: NCI-60 cell line screen (SRB), CAKI-1. To be noted: Homo sapiens. On the procedure:
as §1

Assay [2] relates to Non-Small Cell Lung Cancer cell lines. The assay can be described thus: NCI-60 cell line screen, Non-Small Cell Lung Cancer panel average. To be noted: Homo sapiens, read-out: GI50 Average. The procedure: as §1
The test system of another assay is NCI-H322M. Description: NCI-60 cell line screen (SRB), NCI-H322M. The conditions noted are these: Homo sapiens. On the procedure:
as §1

The test system of another assay is HT29. Description: NCI-60 cell line screen (SRB), HT29. To be noted: Homo sapiens. The procedure: as §1
The next assay concerns SF-539. The assay can be described thus: NCI-60 cell line screen (SRB), SF-539. To be noted: Homo sapiens. The procedure: as §1
A further assay deals with MDA-MB-231/ATCC. Description: NCI-60 cell line screen (SRB), MDA-MB-231/ATCC. To be noted: Homo sapiens. The procedure: as §1
The next assay deals with A-498. The assay can be described thus: NCI-60 cell line screen (SRB), A-498. To be noted: Homo sapiens. The procedure:
as §1

The test system of another assay is SW-620. Description: NCI-60 cell line screen (SRB), SW-620. The conditions noted are these: Homo sapiens. On the procedure: as §1
Another assay has as its system NCI-H23. The assay can be described thus: NCI-60 cell line screen (SRB), NCI-H23. To be noted: Homo sapiens. On the procedure: as §1
A further assay concerns HCT-116. Description: NCI-60 cell line screen (SRB), HCT-116. The conditions noted are these: Homo sapiens. On the procedure:
as §1

A further assay concerns SK-MEL-28. The assay can be described thus: NCI-60 cell line screen (SRB), SK-MEL-28. To be noted: Homo sapiens. The procedure:
as §1

A further assay has as its system SF-268. The assay can be described thus: NCI-60 cell line screen (SRB), SF-268. The conditions noted are these: Homo sapiens. On the procedure:
as §1

A further assay deals with CCRF-CEM. Description: NCI-60 cell line screen (SRB), CCRF-CEM. To be noted: Homo sapiens. On the procedure:
as §1

For a further assay, the system named is OVCAR-3. The assay can be described thus: NCI-60 cell line screen (SRB), OVCAR-3. To be noted: Homo sapiens. On the procedure: as §1

As for `CC1(C)CC(NC(=O)[C@H](Cc2ccc(OCc3c(Cl)cccc3Cl)cc2)NC(=O)c2ccc(OCCC[Si](C)(C)C)cc2)CC(C)(C)N1` [GH1501, N^α-{4-[3-(trimethylsilyl)propoxy]-benzoyl}-N-(2,2,6,6-tetramethylpiperidin-4-yl)-[O-(2,6-dichlorobenzyl)-L-tyrosinamide]], the 50% growth inhibitory concentration (GI50) with OVCAR-8 (OVCAR-8, 48 h) amounted to 0.268 µM; in the assay on UACC-257 (UACC-257, 48 h) it was 1.88 µM; in the assay on CNS Cancer cell lines, 1.19 µM; with M14 (M14, 48 h), 0.341 µM; in the assay on HOP-62 (HOP-62, 48 h), 1.86 µM; with OVCAR-5 (OVCAR-5, 48 h) it was 1.68 µM. Further, the GI50 in the assay with A549/ATCC (A549, 48 h) worked out at 0.407 µM; in the assay with ACHN (48 h), 1.32 µM; in assay [1], 0.834 µM; with HCT-15 (HCT-15, 48 h), 0.357 µM; in the assay on CAKI-1 (CAKI-1, 48 h), 1.36 µM; in assay [2] it was 1.33 µM. Moreover, the GI50 in the assay with NCI-H322M (48 h) stood at 1.74 µM; in the assay with HT29 (HT-29, 48 h), 0.263 µM; with SF-539 (SF-539, 48 h) it was 1.77 µM; in the assay on MDA-MB-231/ATCC (MDA-MB-231, 48 h) it was 0.881 µM; in the assay with A-498 (A498, 48 h) it was 1.75 µM; in the assay with SW-620 (SW-620, 48 h) it was 0.313 µM. The GI50 with NCI-H23 (NCI-H23, 48 h) amounted to 1.65 µM; in the assay on HCT-116 (HCT-116, 48 h), 0.206 µM; in the assay with SK-MEL-28 (SK-MEL-28, 48 h), 1.5 µM; in the assay on SF-268 (SF-268, 48 h) it was 0.903 µM; in the assay on CCRF-CEM (48 h), 1.2 µM; in the assay with OVCAR-3 (OVCAR-3, 48 h) it was 1.25 µM.

For the molecule `CCCC[Si](C)(C)COc1ccc(C(=O)N[C@@H](Cc2ccc(OCc3c(Cl)cccc3Cl)cc2)C(=O)NC2CC(C)(C)NC(C)(C)C2)cc1` [GH1503, N^α-{4-[(butyldimethylsilyl)methoxy]-benzoyl}-N-(2,2,6,6-tetramethylpiperidin-4-yl)-[O-(2,6-dichlorobenzyl)-L-tyrosinamide]], the GI50 in the assay on OVCAR-8 (Ovarian Cancer, OVCAR-8, 48 h drug incubation, read-out: GI50) was determined as 0.263 µM; in the assay on UACC-257 (Melanoma, UACC-257, 48 h drug incubation, read-out: GI50), 1.87 µM; with CNS Cancer cell lines (average over CNS Cancer panel) it was 1.1 µM; in the assay on M14 (Melanoma, M14, 48 h drug incubation, read-out: GI50), 0.334 µM; in the assay with HOP-62 (Non-Small Cell Lung Cancer, HOP-62, 48 h drug incubation, read-out: GI50), 1.51 µM; with OVCAR-5 (Ovarian Cancer, OVCAR-5, 48 h drug incubation, read-out: GI50), 1.62 µM. Moreover, the GI50 with A549/ATCC (Non-Small Cell Lung Cancer, A549/ATCC, 48 h drug incubation, read-out: GI50) is 0.332 µM; in the assay on ACHN (Renal Cancer, 48 h drug incubation, read-out: GI50) it was 0.478 µM; in [1] (average over Prostate Cancer panel), 0.382 µM; with HCT-15 (Colon Cancer, HCT-15, 48 h drug incubation, read-out: GI50) it was 0.323 µM; in the assay on CAKI-1 (Renal Cancer, CAKI-1, 48 h drug incubation, read-out: GI50), 1.08 µM; in [2] (average over Non-Small Cell Lung Cancer panel), 1.21 µM. The GI50 in the assay on NCI-H322M (Non-Small Cell Lung Cancer, 48 h drug incubation, read-out: GI50) was 1.57 µM; with HT29 (HT-29, Colon Cancer, HT29, 48 h drug incubation, read-out: GI50), 0.342 µM; with SF-539 (CNS Cancer, SF-539, 48 h drug incubation, read-out: GI50), 1.73 µM; in the assay with MDA-MB-231/ATCC (Breast Cancer, MDA-MB-231/ATCC, 48 h drug incubation, read-out: GI50), 0.494 µM; in the assay with A-498 (A498, Renal Cancer, A-498, 48 h drug incubation, read-out: GI50) it was 1.95 µM; in the assay on SW-620 (Colon Cancer, SW-620, 48 h drug incubation, read-out: GI50) it was 0.318 µM. The GI50 turned out to be 1.56 µM with NCI-H23 (Non-Small Cell Lung Cancer, NCI-H23, 48 h drug incubation, read-out: GI50); 0.319 µM in the assay with HCT-116 (Colon Cancer, HCT-116, 48 h drug incubation, read-out: GI50); 1.58 µM with SK-MEL-28 (Melanoma, SK-MEL-28, 48 h drug incubation, read-out: GI50); 0.611 µM in the assay with SF-268 (CNS Cancer, SF-268, 48 h drug incubation, read-out: GI50); 0.531 µM in the assay on CCRF-CEM (Leukemia, 48 h drug incubation, read-out: GI50); 0.761 µM in the assay on OVCAR-3 (Ovarian Cancer, OVCAR-3, 48 h drug incubation, read-out: GI50).

`CCCC[Si](C)(C)COc1ccc(C(=O)N[C@@H](Cc2ccc(-c3ccccc3)cc2)C(=O)NC2CC(C)(C)NC(C)(C)C2)cc1` [GH1504, N^α-{4-[(butyldimethylsilyl)methoxy]-benzoyl}-N-(2,2,6,6-tetramethylpiperidin-4-yl)-(4-phenyl-L-phenylalaninamide)]: the GI50 in the assay on OVCAR-8 (OVCAR-8, 48 h) was determined as 0.216 µM; in the assay on UACC-257 (UACC-257, 48 h), 1.78 µM; with CNS Cancer cell lines it was 1.17 µM; with M14 (M14, 48 h), 0.286 µM; with HOP-62 (HOP-62, 48 h), 1.36 µM; in the assay with OVCAR-5 (OVCAR-5, 48 h), 1.81 µM. Besides, the GI50 in the assay with A549/ATCC (A549, 48 h) came out at 0.326 µM; with ACHN (48 h) it was 0.402 µM; in assay [1], 0.834 µM; in the assay on HCT-15 (HCT-15, 48 h), 0.309 µM; in the assay with CAKI-1 (CAKI-1, 48 h) it was 1.58 µM; in assay [2], 1.02 µM. The GI50 with NCI-H322M (48 h) turned out to be 1.71 µM; in the assay on HT29 (HT-29, 48 h), 0.315 µM; in the assay with SF-539 (SF-539, 48 h) it was 1.77 µM; in the assay on MDA-MB-231/ATCC (MDA-MB-231, 48 h), 0.88 µM; in the assay with A-498 (A498, 48 h) it was 1.95 µM; in the assay with SW-620 (SW-620, 48 h), 0.316 µM. Further, the GI50 with NCI-H23 (NCI-H23, 48 h) was found to be 1.76 µM; in the assay with HCT-116 (HCT-116, 48 h), 0.218 µM; with SK-MEL-28 (SK-MEL-28, 48 h) it was 1.33 µM; in the assay with SF-268 (SF-268, 48 h) it was 0.679 µM; in the assay with CCRF-CEM (48 h) it was 1.5 µM; in the assay on OVCAR-3 (OVCAR-3, 48 h) it was 0.202 µM.

The record behind these values is patent publication US9828393B2, “Silylalkyloxyaryl compounds and methods for treating cancer” (THE REGENTS OF THE UNIVERSITY OF COLORADO, a body corporate, priority 2013, dated 2017).
